Data published in patent publication US4731109A, “Herbicidal 2-haloacetanilides” (Monsanto Company, priority 1982, dated 1988).
Where two headings read alike, the source gives them in different places.

Assays:
Format in all cases: in vivo
wild proso millet = assay: Field pre-emergence selectivity test; conditions: 1008 h, 6 weeks, read-out: Percent Inhibition; for inhibition at 560 g/ha: 0.56 Kg/Ha; for inhibition at 1120 g/ha: 1.12 Kg/Ha; for inhibition at 2240 g/ha: 2.24 Kg/Ha; for inhibition at 4480 g/ha: 4.48 Kg/Ha
Method: (§1) The compound of Examples 1 and 2 was also tested in the field to determine its pre-emergence selectivity against foxtail (spp), barnyardgrass, wild proso millet, smartweed, lambsquarters and pigweed in a plurality of crops; the data (representing three replicate runs) are shown in Table VII for both surface application (S.A.) and soil incorporation (PPI, i.e., preplant incorporation) of the herbicide. The seeds were planted in a fine seedbed of silt loam of intermediate moisture. The seeds were planted at a depth of two inches (5.08 cm). First rainfall (0.2"; 0.51 cm) occurred the day following treatment, the second rain (0.25"; […]) two days after treatment; cumulative rainfall 22 days after treatment was 1.8" (4.57 cm). Observations were made 6 weeks after treatment.

Bush Bean = assay: Field pre-emergence selectivity test; conditions: 1008 h, 6 weeks, read-out: Percent Inhibition; for inhibition at 560 g/ha: 0.56 Kg/Ha; for inhibition at 1120 g/ha: 1.12 Kg/Ha; for inhibition at 2240 g/ha: 2.24 Kg/Ha; for inhibition at 4480 g/ha: 4.48 Kg/Ha
Method: as §1

rape = assay: Field pre-emergence selectivity test; conditions: 1008 h, 6 weeks, read-out: Percent Inhibition; for inhibition at 560 g/ha: 0.56 Kg/Ha; for inhibition at 1120 g/ha: 1.12 Kg/Ha; for inhibition at 2240 g/ha: 2.24 Kg/Ha; for inhibition at 4480 g/ha: 4.48 Kg/Ha
Method: as §1

Lambsquarters = assay: Field pre-emergence selectivity test; conditions: Chenopodium album, 1008 h, 6 weeks, read-out: Percent Inhibition; for inhibition at 2240 g/ha: 2.24 Kg/Ha; for inhibition at 4480 g/ha: 4.48 Kg/Ha
Description: (§2) The seeds were planted in a fine seedbed of silt loam of intermediate moisture. The seeds were planted at a depth of two inches (5.08 cm). First rainfall (0.2"; 0.51 cm) occurred the day following treatment, the second rain (0.25"; […]) two days after treatment; cumulative rainfall 22 days after treatment was 1.8" (4.57 cm). Observations were made 6 weeks after treatment.

cotton = assay: Field pre-emergence selectivity test; conditions: Gossypium hirsutum, 1008 h, 6 weeks, read-out: Percent Inhibition; for inhibition at 560 g/ha: 0.56 Kg/Ha; for inhibition at 1120 g/ha: 1.12 Kg/Ha; for inhibition at 2240 g/ha: 2.24 Kg/Ha; for inhibition at 4480 g/ha: 4.48 Kg/Ha
Description: as §2

Sweet Corn = assay: Field pre-emergence selectivity test; conditions: Zea mays, 1008 h, 6 weeks, read-out: Percent Inhibition; for inhibition at 560 g/ha: 0.56 Kg/Ha; for inhibition at 1120 g/ha: 1.12 Kg/Ha; for inhibition at 2240 g/ha: 2.24 Kg/Ha; for inhibition at 4480 g/ha: 4.48 Kg/Ha
Description: as §2

peanuts = assay: Field pre-emergence selectivity test; conditions: 1008 h, 6 weeks, read-out: Percent Inhibition; for inhibition at 560 g/ha: 0.56 Kg/Ha; for inhibition at 1120 g/ha: 1.12 Kg/Ha; for inhibition at 2240 g/ha: 2.24 Kg/Ha; for inhibition at 4480 g/ha: 4.48 Kg/Ha
Description: as §2

snap beans = assay: Greenhouse pre-emergence GR15/GR85 selectivity test; conditions: Table VI
Description: A good grade of top soil is placed in aluminum pans and compacted to a depth of three-eighths to one-half inch from the top of the pan. On the top of the soil is placed a number of seeds or vegetative propagules of various plant species. The soil required to level fill the pans after seeding or adding vegetative propagules is weighed into a pan. The soil and a known amount of the active ingredient applied in a solvent or as a wettable powder suspension are thoroughly mixed, and used to cover the prepared pans. After treatment, the pans are given an initial overhead irrigation of eater, equivalent to one-fourth inch (0.64 cm) rainfall, then watered by subirrigation as need to give adequate moisture for germination and growth. As an alternative procedure, the overhead irrigation may be omitted. Observations are made about 2-3 weeks after seeding and treatment.
In the discussion and tables of data below, reference is made to herbicide application rates symbolized as "GR15 " and "GR85 "; these rates are given in kilograms per hectare (kg/ha) which are convertible into pounds per acre (lbs/A) by dividing the kg/ha rate by 1.12.
A further guide to the effectiveness of a chemical as a selective herbicide is the "selectivity factor" ("SF") for a herbicide in given crops and weeds. […]

soybeans = assay: as above; conditions: Table XIV
Procedure, shortened: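 Active ingredient mixed into cover soil over seeded pans (pre-emergence soil incorporation), initial overhead irrigation equal to 0.64 cm rainfall, then subirrigation. Scored about 2-3 weeks after seeding; GR15 (crop) and GR85 (weed) rates in kg/ha, selectivity factor = crop GR15 / weed GR85.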

## CC(C)OCN(C(=O)CCl)c1ccccc1C(F)(F)F [Example 2, N--(isopropoxymethyl)-2'-trifluoromethyl-2-chloroacetanilide]
Wild proso millet; P.P.I.
  inhibition at 560 g/ha: 35%
  inhibition at 1120 g/ha: 48%
  inhibition at 2240 g/ha: 68%
  inhibition at 4480 g/ha: 87%
Wild proso millet; S.A.
  inhibition at 560 g/ha: 27%
  inhibition at 1120 g/ha: 63%
  inhibition at 2240 g/ha: 75%
  inhibition at 4480 g/ha: 93%
Bush Bean; P.P.I.
  inhibition at 560 g/ha: 5%
  inhibition at 1120 g/ha: 13%
  inhibition at 2240 g/ha: 22%
  inhibition at 4480 g/ha: 63%
Bush Bean; S.A.
  inhibition at 560 g/ha: 0%
  inhibition at 1120 g/ha: 0%
  inhibition at 2240 g/ha: 5%
  inhibition at 4480 g/ha: 33%
rape; P.P.I.
  inhibition at 560 g/ha: 0%
  inhibition at 1120 g/ha: 15%
  inhibition at 2240 g/ha: 27%
  inhibition at 4480 g/ha: 35%
rape; S.A.
  inhibition at 560 g/ha: 0%
  inhibition at 1120 g/ha: 5%
  inhibition at 2240 g/ha: 0%
  inhibition at 4480 g/ha: 30%
Lambsquarters; P.P.I.
  inhibition at 2240 g/ha: 95%
  inhibition at 4480 g/ha: 100%
Lambsquarters; S.A., 0.56 Kg/Ha
  inhibition at 560 g/ha: 0%
Lambsquarters; S.A., 1.12 Kg/Ha
  inhibition at 1120 g/ha: 7%
Lambsquarters; S.A.
  inhibition at 2240 g/ha: 20%
  inhibition at 4480 g/ha: 62%
cotton; P.P.I.
  inhibition at 560 g/ha: 10%
  inhibition at 1120 g/ha: 23%
  inhibition at 2240 g/ha: 30%
  inhibition at 4480 g/ha: 75%
cotton; S.A.
  inhibition at 560 g/ha: 0%
  inhibition at 1120 g/ha: 8%
  inhibition at 2240 g/ha: 8%
  inhibition at 4480 g/ha: 43%
Sweet Corn; P.P.I.
  inhibition at 560 g/ha: 0%
  inhibition at 1120 g/ha: 0%
  inhibition at 2240 g/ha: 13%
  inhibition at 4480 g/ha: 35%
Sweet Corn; S.A.
  inhibition at 560 g/ha: 0%
  inhibition at 1120 g/ha: 0%
  inhibition at 2240 g/ha: 0%
  inhibition at 4480 g/ha: 23%
peanuts; P.P.I.
  inhibition at 560 g/ha: 0%
  inhibition at 1120 g/ha: 5%
  inhibition at 2240 g/ha: 17%
  inhibition at 4480 g/ha: 45%
peanuts; S.A.
  inhibition at 560 g/ha: 0%
  inhibition at 1120 g/ha: 0%
  inhibition at 2240 g/ha: 5%
  inhibition at 4480 g/ha: 20%
Snap beans
  GR15 Rate: 2.2 Kg/Ha
soybeans
  GR15 Rate: > 1.1 Kg/Ha
